The values that follow are results of earlier work, collected in patent US8304000B2, “Process for preparing water extract of cinnamon” (Beijing Tang-An Nutrition & Healthcare Products Co. Ltd., priority 2010, dated 2012).

Regarding `O=c1ccc2ccccc2o1` [Coumarin, 1-benzopyran-2-one], the solubility in alcohol result (alcohol) is on record as “readily soluble”. Moreover, the solubility in water result (water) is on record as “poorly soluble”.
